Measured values reported in patent publication US9067898B1, “Isothiazole derivatives as GPR120 agonists for the treatment of type II diabetes” (Janssen Pharmaceutica NV, priority 2014, dated 2015).

Columns and labels:
Assay type in all cases: cell-based
[1] = biological target: T1, short form of the GPR120 receptor (GPR120S) (Homo sapiens, UniProt Q5NUL3); experiment: Human GPR120 DiscoveRx PathHunter Beta-Arrestin assay, Procedure β-arrestin B; conditions: PathHunter CHO-K1 GPR120S β-Arrestin cell line, 5000 cells/well, read-out: hGPR120 β-arrestin B EC50
T1 construct: host or cells: PathHunter CHO-K1 GPR120S β-Arrestin Cell Line
Excerpt: The binding of an agonist (medium/long chain fatty acids or small molecule agonists) to the G-protein-coupled receptor GPR120 activates phospholipase C, leading to release of intracellular Ca^+2 through the generation of inositol 1,4,5-trisphosphate (InsP3 or IP3). GPR120 activation can also trigger intracellular signaling via recruitment of Beta-Arrestin. In the present method, agonist-induced activation of the human GPR120 receptor is monitored through the use of PathHunter CHO-K1 GPR120 Beta-Arrestin Cell Line engineered by DiscoveRx, as detailed below. The cell lines are designed to co-express both the ProLink/Enzyme Donor (PK)-tagged GPCR and the Enzyme […] (EA)-tagged Beta-Arrestin fusion proteins. Upon GPR120 receptor stimulation/activation, the EA-tagged Beta-Arrestin portion is translocated to the tagged receptor, where the two enzyme fragments are brought within close proximity. Under these conditions, these fragments can interact and form an active Beta-gal enzyme complex through Enzyme Fragment Complementation (EFC). This active Beta-gal complex can enzymatically hydrolyse the substrate to produce a detectable light signal; therefore, activation as a function of agonist concentration can be expressed as an EC50 value to determine relative compound activities. This in vitro assay therefore serves to assess compound agonist activity of the GPR120. Procedure β-Arrestin A: In Procedure β-arrestin A, the cell used were PathHunter CHO-K1 GPR120 β-Arrestin Cell Line, expressing the long form of human GPR120 (Genbank accession number NM 181745), with 3000 cells per well. Procedure β-Arrestin B: In Procedure 3-arrestin B the cells used were PathHunter CHO-K1 GPR120S β-Arrestin Cell Line, expressing the short form of the GPR120 receptor (Accession #NM_181745), with 5000 cells/well. Assay Procedure:
The selected CHO-K1 GPR120 β-Arrestin cells were cultured in Ham's F12 media supplemented with 10% fetal bovine serum (FBS), 1% Glutamine, lx p/s, 800 μg/mL G418 and 300 μg/mL Hygromycin B (for selection). Cell stocks were maintained and grown in a sub-confluent state using standard cell culture procedures. The day before the experiment, the cells were harvested with non-enzymatic cell dissociation buffer and re-suspended in complete growth media at the desired concentration. A Corning 384-plate was then seeded with the proper number of cells in a volume of 25 μL, per well. The seeded plates were incubated overnight at 37° C.
On the day of the experiment, the Assay Buffer containing (a) HBSS with Ca^++ and Mg^++, (b) 20 mM HEPES, and (c) 0.1% BSA stabilizer (pH 7.4) was prepared. The growth medium was gently removed from the cell plates and 20 μL of Assay Buffer added to each well. The plate was then incubated at 37° C. for 60 min. Test compounds were serially diluted in Assay Buffer to desired concentrations (more particularly to one or more of the following μM concentrations: 25, 12.5, 6.25, 3.125, 1.5625, 0.78125, 0.390625, 0.1953125, 0.09765625, 0.048828125, 0.024414063, 0.012207031). Five μL of compound dilution was then added to each well and the plate incubated at 37° C. for 90 min. The detection reagents were prepared according to the manufacture's instruction. Twelve μL of the detection reagents were added to each well and the plate incubated at room temperature for 60 min.
The plates were read on an EnVision instrument, using Protocol name: Luminescence, Plate type: 384 Costar, Measurement height: 3 mm, Measurement time: 1 s, Aperture: 384 Plate aperture. The % activity relative to the positive control was calculated using the following equation:
The % Activity values were plotted versus the concentration of test compound and fitted to a sigmoidal dose-response curve with a Hill slope=1 (fixed value) using nonlinear regression with GraphPad Prism 5.0 to calculate the EC50 values. […]

[2] = biological target: T2, Human GPR120 short form (Homo sapiens, UniProt Q5NUL3); experiment: Human GPR120 calcium flux assay (FLIPR), Procedure Calcium A; conditions: HEK-293 cells expressing human GPR120 short form, 2500 cells/well; read-out: GPR120 Ca2+ Assay A EC50
T2 construct: expressed in transfected cells
T2 sequence (Q5NUL3 1-361): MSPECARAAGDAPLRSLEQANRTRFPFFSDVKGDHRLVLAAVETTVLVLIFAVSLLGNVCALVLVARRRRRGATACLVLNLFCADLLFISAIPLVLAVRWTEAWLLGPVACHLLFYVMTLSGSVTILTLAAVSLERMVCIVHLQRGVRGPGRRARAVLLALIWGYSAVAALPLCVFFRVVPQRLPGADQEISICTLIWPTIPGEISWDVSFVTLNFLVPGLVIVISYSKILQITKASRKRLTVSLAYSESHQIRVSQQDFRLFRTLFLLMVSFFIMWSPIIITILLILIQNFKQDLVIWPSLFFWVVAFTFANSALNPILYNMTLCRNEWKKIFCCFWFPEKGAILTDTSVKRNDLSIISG
Outline: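 HEK293 cells stably expressing the short isoform (NM_001195755.1), 2500/well, starved 1 h, then loaded with Fluo-4 NW plus probenecid (30 min 37 °C, 15 min RT). Compound solutions 0.012–100 μM, 0.2% DMSO final; FLIPR read 300 s after addition. EC50 from Fmax−Fmin fitted to variable-slope sigmoid (Hill <2).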

[3] = biological target: T3, long form of human GPR120 (Homo sapiens, UniProt Q5NUL3); experiment: Human GPR120 DiscoveRx PathHunter Beta-Arrestin assay, Procedure β-arrestin A; conditions: PathHunter CHO-K1 GPR120 β-Arrestin cell line, 3000 cells per well, read-out: hGPR120 β-arrestin A EC50
T3 construct: host or cells: PathHunter CHO-K1 GPR120 β-Arrestin Cell Line
Outline: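 PathHunter CHO-K1 β-arrestin cells expressed long-form GPR120 (Procedure A, 3000 cells/well) or short-form GPR120 (Procedure B, 5000 cells/well). Compounds were serially diluted from 25 µM and incubated 90 min at 37 °C in HBSS/20 mM HEPES/0.1% BSA, pH 7.4. Luminescence was read after 60 min detection at RT; EC50 comes from % activity versus positive control, Hill slope fixed at 1.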

T3 sequence (Q5NUL3 1-377 isoform Q5NUL3-1): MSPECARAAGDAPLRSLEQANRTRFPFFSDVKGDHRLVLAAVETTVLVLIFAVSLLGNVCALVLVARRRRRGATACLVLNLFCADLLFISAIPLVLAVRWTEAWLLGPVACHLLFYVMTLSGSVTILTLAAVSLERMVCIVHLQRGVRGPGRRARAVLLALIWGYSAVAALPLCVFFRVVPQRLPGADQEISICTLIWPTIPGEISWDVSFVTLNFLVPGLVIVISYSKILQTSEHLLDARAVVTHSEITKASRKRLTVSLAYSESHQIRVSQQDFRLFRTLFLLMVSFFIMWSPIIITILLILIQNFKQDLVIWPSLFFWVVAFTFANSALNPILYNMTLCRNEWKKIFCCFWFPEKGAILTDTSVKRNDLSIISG
T3 sequence (P32121 whole entry partner): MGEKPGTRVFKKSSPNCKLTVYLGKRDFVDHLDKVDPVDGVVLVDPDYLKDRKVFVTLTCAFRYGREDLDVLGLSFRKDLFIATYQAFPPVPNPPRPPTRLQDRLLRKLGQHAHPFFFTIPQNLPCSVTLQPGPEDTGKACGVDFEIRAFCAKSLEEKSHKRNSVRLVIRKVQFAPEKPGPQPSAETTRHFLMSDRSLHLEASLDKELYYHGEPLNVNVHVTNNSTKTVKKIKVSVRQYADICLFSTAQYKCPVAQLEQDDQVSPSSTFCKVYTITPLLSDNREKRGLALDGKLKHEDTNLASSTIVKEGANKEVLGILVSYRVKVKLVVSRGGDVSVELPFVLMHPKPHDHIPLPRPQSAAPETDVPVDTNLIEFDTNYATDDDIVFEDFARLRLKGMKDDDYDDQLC
T1 sequence (P32121 whole entry partner, one chain of several): as the sequence (P32121 whole entry partner) above

| Compound | EC50 [1] [nM] | EC50 [2] [nM] | EC50 [3] [nM] |
| --- | --- | --- | --- |
| COc1cc(OCc2c(Cl)nsc2-c2ccccc2C)ccc1CCC(=O)O [Cpd 222, 3-(4-((3-chloro-5-(o-tolyl)isothiazol-4-yl)methoxy)-2-methoxyphenyl)propanoic acid] | 1950 | 757 |  |
| COc1cc(F)c(-c2nsc(C(F)(F)F)c2COc2ccc(CCC(=O)O)c(C)c2C)c(F)c1 [Cpd 229, 3-(4-[[3-(2,6-difluoro-4-methoxyphenyl)-5-(trifluoromethyl)-1,2-thiazol-4-yl]methoxy]-2,3-dimethylphenyl)propanoic acid] | 1810 | 936 |  |
| COc1ccc(-c2nsc(C(F)(F)F)c2COc2c(F)cc(CCC(=O)O)cc2F)cc1F [Cpd 237, 3-(3,5-difluoro-4-[[3-(3-fluoro-4-methoxyphenyl)-5-(trifluoromethyl)-1,2-thiazol-4-yl]methoxy]phenyl)propanoic acid] | 96 |  |  |
| O=C(O)CCc1ccc(OCc2c(Cl)nsc2-c2ccc(Cl)cc2)c(F)c1F [Cpd 72, 3-(4-[[3-chloro-5-(4-chlorophenyl)-1,2-thiazol-4-yl]methoxy]-2,3-difluorophenyl)propanoic acid] |  | 39 | 103 |
| CCc1ccc(-c2cscc2COc2ccc(CCC(=O)O)c(C)c2C)cc1 [Cpd 41, 3-(4-((4-(4-ethylphenyl)thiophen-3-yl)methoxy)-2,3-dimethylphenyl)propanoic acid] |  | 142 | 711 |
| O=C(O)CCc1ccc(OCc2c(-c3ccc(Cl)cc3)nsc2C(F)(F)F)c(F)c1F [Cpd 106, 3-(4-[[3-(4-chlorophenyl)-5-(trifluoromethyl)-1,2-thiazol-4-yl]methoxy]-2,3-difluorophenyl)propanoic acid] |  | 86 | 98 |
| CCc1ccc(-c2nsc(C(F)(F)F)c2COc2c(F)c(F)c(CCC(=O)O)c(F)c2F)cc1 [Cpd 118, 3-(4-((3-(4-ethylphenyl)-5-(trifluoromethyl)isothiazol-4-yl)methoxy)-2,3,5,6-tetrafluorophenyl)propanoic acid] |  | 105 | 257 |
| O=C(O)/C=C/c1ccc(OCc2c(Cl)nsc2-c2ccc(Cl)cc2)c(F)c1F [Cpd 185, (E)-3-(4-((3-chloro-5-(4-chlorophenyl)isothiazol-4-yl)methoxy)-2,3-difluorophenyl)acrylic acid] |  | 301 | 324 |
| CCc1ccc(-c2snc(Cl)c2COc2ccc(CCCO)c(C)c2C)cc1 [Cpd 209, 3-(4-((3-chloro-5-(4-ethylphenyl)isothiazol-4-yl)methoxy)-2,3-dimethylphenyl)propan-1-ol] |  | 579 | 229 |
| CCc1ccc(-c2ccsc2COc2c(F)cc(CCCO)cc2F)cc1 [Cpd 20, 3-(4-[[3-(4-ethylphenyl)thiophen-2-yl]methoxy]-3,5-difluorophenyl)propan-1-ol] |  | 657 | 168 |

The remaining lines, values ahead:

| EC50 [1] [nM] | EC50 [2] [nM] | EC50 [3] [nM] | Compound |
| --- | --- | --- | --- |
| 116 |  |  | O=C(O)CCc1cc(F)c(OCc2c(-c3ccc(F)c(F)c3)nsc2C(F)(F)F)c(F)c1 [Cpd 129, 3-(4-((3-(3,4-difluorophenyl)-5-(trifluoromethyl)isothiazol-4-yl)methoxy)-3,5-difluorophenyl)propanoic acid] |
|  | 170 | 304 | CCc1ccc(-c2sccc2COc2ccc(CCC(=O)O)c(C)c2C)cc1 [Cpd 49, 3-(4-((2-(4-ethylphenyl)thiophen-3-yl)methoxy)-2,3-dimethylphenyl)propanoic acid] |
|  | 300 | 52 | CCc1ccc(-c2snc(Cl)c2COc2c(F)cc(CCCO)cc2F)cc1 [Cpd 183, 3-(4-[[3-chloro-5-(4-ethylphenyl)-1,2-thiazol-4-yl]methoxy]-3,5-difluorophenyl)propan-1-ol] |
|  | 98 | 244 | CCc1ccc(-c2snc(Cl)c2COc2c(F)cc(CCC(=O)O)c(F)c2F)cc1 [Cpd 111, 3-(4-((3-chloro-5-(4-ethylphenyl)isothiazol-4-yl)methoxy)-2,3,5-trifluorophenyl)propanoic acid] |
|  | 54 | 172 | Cc1c(CCC(=O)O)ccc(OCc2c(-c3ccc(Cl)c(F)c3)nsc2C(F)(F)F)c1C [Cpd 82, 3-(4-((3-(4-chloro-3-fluorophenyl)-5-(trifluoromethyl)isothiazol-4-yl)methoxy)-2,3-dimethylphenyl)propanoic acid] |
|  | 74 | 185 | COc1ccc(-c2nsc(C(F)(F)F)c2COc2c(F)cc(CCC(=O)O)cc2F)cn1 [Cpd 98, 3-(3,5-difluoro-4-((3-(6-methoxypyridin-3-yl)-5-(trifluoromethyl)isothiazol-4-yl)methoxy)phenyl) propanoic acid] |
|  | 126 | 222 | CCc1ccc(-c2cc(Cl)sc2COc2ccc(CCC(=O)O)c(F)c2F)cc1 [Cpd 11, 3-(4-[[5-chloro-3-(4-ethylphenyl)thiophen-2-yl]methoxy]-2,3-difluorophenyl)propanoic acid] |
|  | 634 | 108 | OCCCc1cc(F)c(OCc2sc(Cl)cc2-c2ccc(Cl)cc2)c(F)c1 [Cpd 19, 3-(4-[[5-chloro-3-(4-chlorophenyl)thiophen-2-yl]methoxy]-3,5-difluorophenyl)propan-1-ol] |
|  | 690 | 210 | 3-(4-((4-(4-ethylphenyl)thiophen-3-yl)methoxy)-3,5-difluorophenyl)propanoic acid [Cpd 53] |
|  | 168 | 236 | CCc1ccc(-c2sccc2COc2ccc(CCC(=O)O)c(F)c2F)cc1 [Cpd 48, 3-(4-((2-(4-ethylphenyl)thiophen-3-yl)methoxy)-2,3-difluorophenyl)propanoic acid] |
|  | 191 | 668 | CCc1ccc(-c2cscc2COc2c(F)cc(CCC(=O)O)cc2F)cc1 [Cpd 53, 3-(4-((4-(4-ethylphenyl)thiophen-3-yl)methoxy)-3,5-difluorophenyl)propanoic acid] |
